Patent publication US6949545B2, “Heterocyclic side chain containing, n-substituted metalloprotease inhibitors” (The Procter & Gamble Company, priority 2000, dated 2005)

Test system: asthma sufferer
Assay: Example E: inhalation aerosol for asthma
Assay type: in vivo, human
Conditions: 5.0% w/v aerosol, 0.01 mL sprayed into the mouth while inhaling
Procedure: An inhalation aerosol composition, according to the present invention, is made comprising: An asthma sufferer sprays 0.01 mL via a pump actuator into the mouth while inhaling.

`COc1ccc(-c2ccc(S(=O)(=O)N(C)C(C(=O)O)C3CCN(CCc4ccccc4)CC3)cc2)cc1` (stereo not shown) [Example 17, [(4′-Methoxy-biphenyl-4-sulfonyl)-methyl-amino]-(1-phenethyl-piperidin-4-yl)-acetic Acid] was tested, and the asthma symptoms was “Asthma symptoms are diminished”.
